Experiments:
[1] = tested on: stomach ulcer model induced by NSAIDs; assay: Stomach ulcer induced by NSAIDs in rats, lyophilized NSAID and trehalose vs NSAID alone (Working Example 1); format: in vivo, rat; settings: trehalose 800 mg/kg, oral, 5 hours, average±standard deviation
Experimental: Each of the test substances were adjusted by suspending or dissolving them into 0.5% CMC.Na solution. Each of 9 mL of Liquid doses was given per 1 kg weight by oral dose. 0.5% CMC.Na solutions were given to control group.
(§1) We bought Winster male rats (Japan SLC) that were 8 weeks old. We breed these rats keeping 20 to 26 degrees C., humidity of 30 to 70%, housing 2 to 3 rats in a rat breeding gage (mouse and rat breeding CE-2), giving enough amount of filtered tap water. After breeding 7 days, 5 to 10 rats per group were picked to execute the example. The rats were fasting for 24 hours without giving no food and then the rats were fed no food and no water for 1 hour just before the examination.
From 11 am on the previous day of the examination date, the rats were kept fasting and test substances were fed though mouse. After 5 hours passed, these rats were killed by carbon dioxide gas and stomachs were picked up. The duodenums were tagged. 6 mL of neutral formalin was poured from the esophagi so as to fix the stomachs for 30 minutes. The stomachs were cut along with the greater curvature. The cut stomachs were gently washed by saline, the presence of blood spot were observed by a stereoscopic microscope. The area of blood spots was measured by 0.5 mm×0.5 mm unit as an index of ulcer and the sum of each animal was calculated. The rate of suppressed ulcer was calculated, using the ulcer index for the group in which each of test sample was given and the group in which trehalose was also given, in accordance with the following equation.
(§2) Rate of suppressed ulcer(%)=[1−A/B]×100 • […]

[2] = tested on: gastric mucosal disorder (ulcer) induced by NSAIDs; assay: Gastric mucosal disorder in rats: NSAID alone, mixture with trehalose, lyophilized with trehalose (Working Example 2); format: in vivo; settings: rat, oral, 5 hours, trehalose 800 mg/kg
Experimental: The liquid doses were prepared on the date when the examination was executed. Weighted NSAIDs were suspended or dissolved into 0.5% CMC.Na solution to prepare doses of administrating NSAIDs only. Suspension of NSAIDs and solution of trehalose were prepared. […] For each groups the amount of dose was 8 mL per kg or rat.
as §1
From 11 am on the previous day of the examination date, the rats were kept fasting and test substances were fed though mouse. After 5 hours passed, these rats were killed by carbon dioxide gas and stomachs were picked up. The duodenums were tagged. 6 mL of neutral formalin were poured from the esophagi so as to fix the stomachs for 30 minutes. The stomachs were cut along with the greater curvature. The cut stomachs were gently washed by saline, the presence of blood spot were observed by a stereoscopic microscope.
The area of blood spots was measured by 0.5 mm×0.5 mm unit as an index of ulcer and the sum of each animals was calculated. The rate of suppressed ulcer was calculated, using the ulcer index for the group in which each of test samples were given and the group in which trehalose was also given, in accordance with the following equation.
as §2

## CC(=O)Oc1ccccc1C(=O)O [Aspirin alone, aspirin]
[1]; stomach ulcer model induced by aspirin, aspirin 200 mg/kg
  ulcer (area of blood spots, ulcer index): 10.40±2.80 mm^2
[2]; aspirin 200 mg/kg
  Ulcer index (mm^2, average ± standard deviation): 10.40 ± 2.73 mm^2
[2]; aspirin 200 mg/kg, listed as aspirin alone
  Ulcer index (mm^2, average ± standard deviation): 10.40±2.73 mm^2

## O=C(O)Cc1ccccc1Nc1c(Cl)cccc1Cl [Diclofenac alone, sodium diclofenac]
[1]; stomach ulcer model induced by diclofenac, diclofenac 40 mg/kg
  ulcer (area of blood spots, ulcer index): 4.30±0.71 mm^2
[2]; diclofenac 40 mg/kg
  Ulcer index (mm^2, average ± standard deviation): 4.30 ± 0.71 mm^2
[2]; diclofenac 40 mg/kg, listed as diclofenac alone
  Ulcer index (mm^2, average ± standard deviation): 4.30±0.71 mm^2

## COc1ccc2c(c1)c(CC(=O)O)c(C)n2C(=O)c1ccc(Cl)cc1 [Indomethacin alone, indomethacin]
[1]; stomach ulcer model induced by indomethacin, indomethacin 30 mg/kg
  ulcer (area of blood spots, ulcer index): 4.83±0.90 mm^2
[2]; indomethacin 30 mg/kg
  Ulcer index (mm^2, average ± standard deviation): 4.83 ± 0.90 mm^2
[2]; indomethacin 30 mg/kg, listed as indomethacin alone
  Ulcer index (mm^2, average ± standard deviation): 4.83±0.90 mm^2

## CC(C)Cc1ccc(C(C)C(=O)O)cc1 (stereo not shown) [ibuprofen alone, ibuprofen]
[1]; stomach ulcer model induced by ibuprofen, ibuprofen 400 mg/kg
  ulcer (area of blood spots, ulcer index): 5.35±1.86 mm^2

— patent US20110301116A1, “NSAIDS-INDUCED GASTROINTESTINAL MUCOSAL DISORDER ALLEVIATOR AND MANUFACTURING METHOD THEREOF” (THE UNIVERSITY OF TOKYO, priority 2008, published 2011)
